Where a name gives a salt, the structure may show the parent alone.
How the values were obtained:
water solubility = type: physicochemical; conditions: for water solubility: 25° C.
[1] = crystal formation on standing (sodium salt, five months at 5°-10° C.); type: physicochemical; conditions: standing for over five months at 5°-10° C.
[2] = Acute Intravenous Toxicity Studies in Mice; conditions: mouse, in vivo, lateral tail vein, solutions containing 28.27% iodine, 1 ml./min., seven day observation, read-out: LD50 of N-Methylglucamine Salt, I.V. (Mice)
Procedure: (§1) Toxicity evaluations were carried out on solutions of the N-methylglucaminesalt of 5-gluconamido-2,4,6-triiodo-N-methylisophthalamic acid by three different techniques and on solutions of the N-methylglucamine salt of 3-acetamido-2,4,6-triiodo-5-trishydroxymethylacetamido-benzoic acid by two different techniques. The techniques utilized are outlined below.
Swiss Albino mice (Charles River) were dosed in the lateral tail vein with solutions of the iodinated compound containing 28.27% of iodine, injected at the rate of 1 ml./min. […] The LD50 values were calculated by the method of Litchfield and Wilcoxon (J. of Pharmac. and Exptl. Therap. 96:99-113, 1949).

[3] = Intracerebral Toxicity in Mice; conditions: mouse, in vivo, fixed volumes of various concentrations, seven day observation, read-out: LD50 of N-Methylglucamine Salt, Intracerebral (Mice)
Procedure: as §1
Swiss Albino mice (Charles River) were used. Fixed volumes of solutions of various concentrations of the iodinated compounds were injected intracerebrally via a 27 gauge needle, (1/4 inch length) according to the method of Haley, et al. (Br. J. of Pharmac. 12:12-15, 1957). The animals were observed immediately after injections and daily throughout a seven day observation period. The LD50 values were calculated by the method of Litchfield and Wilcoxon (J. of Pharmac. and Exptl. Therap. 96:99-113, 1949).

[4] = Intracisternal Toxicity in Rats; parameters: species or system Sprague Dawley (Carworth) rats; conditions: rat, in vivo, two day observation, read-out: LD50 of N-Methylglucamine Salt, Intracisternal (Rats)
Procedure: as §1
Sprague Dawley (Carworth) rats were used. The method used is a variation of the procedure outlined by Melartin et al. (Invest. Rad. 5:13-21, 1970). After dosing, the animals were housed individually, and observed for immediate reactions and periodically for a two day observation period. The LD50 values were calculated according to the method of Litchfield and Wilcoxon, (J. of Pharmac. and Exptl. Therap. 96:99-115, 1949).

Compound | water solubility (water solubility) | LD50 at 168 h [2] | LD50 at 168 h [3] | further results
CNC(=O)c1c(I)c(NC(=O)[C@H](O)[C@@H](O)[C@H](O)[C@H](O)CO)c(I)c(C(=O)O)c1I [Example 2, Sodium 5-Gluconamido-2,4,6-triiodo-N-methylisophthalamate] | – | – | – | solubility (water solubility; water, read-out: solubility of the sodium salt): > 1010 mg/mL; crystals formed after standing [1]: no crystals formed
CC(=O)Nc1c(I)c(NC(=O)C(CO)(CO)CO)c(I)c(C(=O)O)c1I [Example 3, 3-Acetamido-2,4,6-triiodo-5-(trishydroxymethyl)acetamido-benzoic Acid] | 2-2.5 % w/v | – | – | –
CC(=O)Nc1c(I)c(NC(=O)C(CO)(CO)CO)c(I)c(C(=O)O)c1I [Example 4, sodium salt of 3-acetamido-2,4,6-triiodo-5-trishydroxymethylacetamido-benzoic acid] | 63.5-66 % w/v | – | – | –
CC(=O)Nc1c(I)c(NC(=O)C(CO)(CO)CO)c(I)c(C(=O)O)c1I [N-methylglucamine salt of 3-acetamido-2,4,6-triiodo-5-trishydroxymethylacetamido-benzoic acid] | – | 6000 mg/kg | 150 mg/kg | –
CNC(=O)c1c(I)c(NC(=O)[C@H](O)[C@@H](O)[C@H](O)[C@H](O)CO)c(I)c(C(=O)O)c1I [N-methylglucaminesalt of 5-gluconamido-2,4,6-triiodo-N-methylisophthalamic acid] | – | 5200 mg/kg | 620 mg/kg | LD50 at 48 h [4]: 355 mg/kg

— patent US4160015A, “2,4,6-Triiodobenzoic acid derivatives and their use as x-ray contrast agents” (priority 1978, dated 1979)
